Values quoted from earlier work, collected in patent US4803081A, “New pharmaceutical preparations with extended release” (Aktiebolaget Hassle, priority 1986, dated 1989).
In brackets after ≈: the same amount, converted by molar mass. Like-named read-outs stand apart in the source and are kept apart here.

Settings: for solubility (in words): very low = less than 0.1 per cent by weight in water

| Structure (SMILES) | solubility (in words) | solubility (in words) (listed as Felodipine) | solubility in water (water) [µg/mL] |
| --- | --- | --- | --- |
| COC1=CC(=O)C[C@@H](C)[C@]12Oc1c(Cl)c(OC)cc(OC)c1C2=O [griseofulvin] | very low solubility |  |  |
| CCOC(=O)C1=C(C)NC(C)=C(C(=O)OC)C1c1cccc(Cl)c1Cl (centres unmarked) [felodipine, 4-(2,3-dichlorophenyl)-1,4-dihydro-2,6-dimethyl-3,5-pyridinedicarboxylic acid ethyl methyl ester] | very low solubility | practically insoluble | 0.5 (≈ 1.3 µM) |
| O=C1NC(=O)C(c2ccccc2)(c2ccccc2)N1 [phenytoin] | very low solubility |  |  |
